Measurements published in US20250215029A1 (Recludix Pharma, Inc., priority 2022, published 2025).
pIC50: −log10 of the molar value. Where two headings read alike, the source gives them in different places.

Assays:
pY641-STAT6 in PBMC = biological target: T1, pY641-STAT6 in PBMC (Homo sapiens, UniProt P42226); experiment: MSD-pSTAT-PBMC Assay (pSTAT6, IL-4 stimulated); type: cell-based; details: compound 3 hrs, then 1 ng/mL IL-4 for 10 min
T1 construct: Cryopreserved Peripheral Blood Mononuclear Cells (PBMC) are from AllCells; host or cells: cryopreserved PBMC
T1 sequence (P42226 1-847): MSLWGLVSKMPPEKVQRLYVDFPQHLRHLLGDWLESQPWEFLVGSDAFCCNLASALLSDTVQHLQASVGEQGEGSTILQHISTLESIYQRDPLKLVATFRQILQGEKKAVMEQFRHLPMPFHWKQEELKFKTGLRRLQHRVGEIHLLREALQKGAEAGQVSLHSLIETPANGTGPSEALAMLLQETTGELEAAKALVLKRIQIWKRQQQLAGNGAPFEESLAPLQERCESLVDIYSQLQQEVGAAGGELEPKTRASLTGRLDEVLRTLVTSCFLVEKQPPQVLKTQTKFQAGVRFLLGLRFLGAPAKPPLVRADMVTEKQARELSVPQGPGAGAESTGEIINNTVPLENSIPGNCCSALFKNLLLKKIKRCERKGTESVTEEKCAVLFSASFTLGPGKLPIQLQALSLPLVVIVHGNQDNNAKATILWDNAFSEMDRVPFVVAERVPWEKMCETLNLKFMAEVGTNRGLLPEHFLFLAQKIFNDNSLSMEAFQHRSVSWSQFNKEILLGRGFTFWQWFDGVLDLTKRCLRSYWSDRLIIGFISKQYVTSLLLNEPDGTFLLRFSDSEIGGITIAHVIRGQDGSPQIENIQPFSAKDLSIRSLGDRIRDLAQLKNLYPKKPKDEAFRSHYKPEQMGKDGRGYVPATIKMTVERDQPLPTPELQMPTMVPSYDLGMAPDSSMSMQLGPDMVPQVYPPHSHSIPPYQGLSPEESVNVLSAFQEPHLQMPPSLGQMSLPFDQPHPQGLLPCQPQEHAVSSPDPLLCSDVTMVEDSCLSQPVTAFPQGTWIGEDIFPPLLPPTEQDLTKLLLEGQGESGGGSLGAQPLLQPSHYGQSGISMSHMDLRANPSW
Outline: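 PBMC (human, cryopreserved, overnight recovery) + cpd 3 hrs → IL-6 10 ng/mL (STAT3) or IL-4 1 ng/mL (STAT6) ×10 min → lysis with protease/phosphatase inhibitors → MSD capture/phospho detection. IC50, variable slope, DMSO-normalized.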

pY705-STAT3 in PBMC = biological target: T2, pY705-STAT3 in PBMC (Homo sapiens, UniProt P40763); experiment: MSD-pSTAT-PBMC Assay (pSTAT3, IL-6 stimulated); type: cell-based; details: compound 3 hrs, then 10 ng/mL IL-6 for 10 min
T2 construct: Cryopreserved Peripheral Blood Mononuclear Cells (PBMC) are from AllCells; host or cells: cryopreserved PBMC
Outline: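 MSD electrochemiluminescence read-out: total STAT captured, probed with anti-pY641-STAT6 or anti-pY705-STAT3. Human PBMC, 3 h compound pretreatment, 10 min stimulation (IL-4 1 ng/mL or IL-6 10 ng/mL). Unstimulated signal subtracted, DMSO-normalized, variable-slope IC50.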

[1] = PBMC, Table 1114, read-out: pSTAT6
[2] = PBMC, Table 1114, read-out: pSTAT3
[3] = PBMC, Table 115, read-out: STAT3
[4] = PBMC, Table 115, read-out: STAT6

T2 sequence (P40763 whole entry): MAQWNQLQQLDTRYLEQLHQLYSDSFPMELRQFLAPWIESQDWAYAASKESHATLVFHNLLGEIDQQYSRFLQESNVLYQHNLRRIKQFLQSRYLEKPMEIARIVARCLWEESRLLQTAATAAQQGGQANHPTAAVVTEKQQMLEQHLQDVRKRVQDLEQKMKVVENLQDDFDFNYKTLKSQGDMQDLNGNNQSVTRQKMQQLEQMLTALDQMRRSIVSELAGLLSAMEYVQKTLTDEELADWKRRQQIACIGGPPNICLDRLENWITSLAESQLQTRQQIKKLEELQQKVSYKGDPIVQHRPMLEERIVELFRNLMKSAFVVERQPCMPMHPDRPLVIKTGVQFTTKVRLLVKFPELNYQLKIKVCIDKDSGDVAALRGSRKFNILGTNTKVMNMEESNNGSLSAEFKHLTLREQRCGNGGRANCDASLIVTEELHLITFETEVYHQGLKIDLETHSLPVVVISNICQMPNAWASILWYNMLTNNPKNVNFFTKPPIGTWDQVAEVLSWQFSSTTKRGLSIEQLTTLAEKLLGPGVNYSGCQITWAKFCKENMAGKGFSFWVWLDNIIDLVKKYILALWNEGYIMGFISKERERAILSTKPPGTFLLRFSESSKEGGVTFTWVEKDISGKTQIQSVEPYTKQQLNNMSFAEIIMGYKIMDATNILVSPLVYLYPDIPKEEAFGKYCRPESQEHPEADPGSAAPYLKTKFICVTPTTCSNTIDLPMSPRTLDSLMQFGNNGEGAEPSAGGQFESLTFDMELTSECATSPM

Row | pIC50 (pY641-STAT6 in PBMC; [1]) | pIC50 (pY705-STAT3 in PBMC; [2]) | Structure (SMILES) | pIC50 (pY705-STAT3 in PBMC; [3]) | further results
1 | > 7.00 | > 7.00 | CC(C)(C)C(=O)OCOP(=O)(OCOC(=O)C(C)(C)C)C(F)(F)c1ccc2sc(C(=O)N[C@H]3CCCC[C@H]4CC[C@@H](C(=O)N5C[C@H](c6ccccc6)[C@@H](C#N)C5)N4C3=O)cc2c1 (relative stereo) [Compound 190, ((((2-(((3S,6S,10aS)-3-(rel- trans)-3-cyano-4-phenyl-pyrrolidine-1-carbonyl)-5-oxodecahydro-pyrrolo[1,2-a]azocin-6-yl)carbamoyl)benzo[b]thiophen-5-yl)difluoro-methyl)phos-phoryl)bis(oxy)) bis(methylene) bis(2,2-dimethyl-propanoate)] | – | –
2 | – | – | CCCOC(=O)[C@H](C)NP(=O)(Oc1ccccc1)[C@H](F)c1ccc2sc(C(=O)N[C@H]3CCC[C@H]4CC[C@@H](C(=O)N5C[C@H](c6cccnc6)[C@@H](C#N)C56CC6)N4C3=O)cc2c1 (single isomer, unassigned) [Compound 354] | < 5.52 | pIC50 (pY641-STAT6 in PBMC; STAT6, PBMC, Table 115): > 7.00
3 | – | – | CC(C)CC(=O)SCCOP(=O)(OCOC(=O)O[C@H]1CCOC1)C(F)(F)c1ccc2sc(C(=O)N[C@H]3CCCC[C@H]4CC[C@@H](C(=O)N5C[C@H](c6cc[nH]c(=O)c6)[C@@H](C#N)C5)N4C3=O)cc2c1 (single isomer, unassigned) [Compound 1097] | 5.52 to 6.00 | pIC50 (pY641-STAT6 in PBMC; [4]): 6.00 to 7.00
4 | – | – | CCCOC(=O)[C@H](C)NP(=O)(Cc1ccc2ccc(C(=O)N[C@H]3CCCC[C@H]4CC[C@@H](C(=O)N5C[C@H](c6cc[nH]c(=O)c6)CC56CC6)N4C3=O)cc2c1)Oc1ccccc1 (stereo partly drawn) [Compound 402, propyl (((7-(((3S,6S,10aS)-5-oxo-3-((S)-6-(2-oxo-1,2-dihydropyridin-4-yl)-4-azaspiro[2.4]heptane-4-carbonyl)decahydropyrrolo[1,2-a]azocin-6-yl)carbamoyl)naphthalen-2-yl)methyl)(phenoxy)phosphoryl)-L-alaninate] | < 5.52 | pIC50 (pY641-STAT6 in PBMC; STAT6, PBMC, Table 115): 5.52 to 6.00
5 | > 7.00 | 6.00 to 7.00 | CCCC(=O)SCCOP(=O)(OCCSC(=O)CCC)C(F)(F)c1ccc2sc(C(=O)N[C@H]3CCCC[C@H]4CC[C@@H](C(=O)N5C[C@@H](C#N)[C@H](c6ccccc6)C5)N4C3=O)cc2c1 (relative stereo) [Compound 126, S,S′-(((((2-(((3S,6S,10aS)-3-(rel-trans)-3-cyano-4-phenylpyrrolidine-1-carbonyl)-5-oxodecahydro-pyrrolo[1,2-a]azocin-6-yl)carbamoyl)benzo[b]thiophen-5-yl)difluoromethyl)phosphoryl)bis(oxy)) bis(ethane-2,1-diyl)) dibutanethioate] | – | –
6 | – | – | CCCOC(=O)[C@H](C)NP(=O)(Oc1ccccc1)C(F)c1ccc2sc(C(=O)N[C@H]3CCCC[C@H]4CC[C@@H](C(=O)N5C[C@@H](c6ccccc6)[C@H](C#N)C56CC6)N4C3=O)cc2c1 (relative stereo) [Compound 325, propyl (((2-(((3S,6S,10aS)-3-((rel-trans)-7-cyano-6-phenyl-4-azaspiro[2.4]heptane-4-carbonyl)-5-oxodecahydropyrrolo [1,2-a]azocin-6-yl)carbamoyl)benzo [b]thiophen-5-yl)fluoromethyl) (phenoxy)phosphoryl)-L-alaninate] | < 5.52 | pIC50 (pY641-STAT6 in PBMC; [4]): > 7.00
7 | – | – | CC(C)C(=O)SCCOP(=O)(OCCSC(=O)C(C)C)C(F)(F)c1ccc2sc(C(=O)N[C@H]3CCC[C@H]4CC[C@@H](C(=O)N5CC(c6cccnc6)C5)N4C3=O)cc2c1 [Compound 1009, S,S′-((((difluoro(2-(((3S,6S,9aS)-5-oxo-3-(3-(pyridin-3-yl)azetidine-1-carbonyl)octahydro-1H-pyrrolo[1,2-a]azepin-6-yl)carbamoyl)benzo [b]thiophen-5-yl)methyl)phosphoryl)bis(oxy))bis(ethane-2,1-diyl)) bis(2-methyl-propanethioate)] | > 7.00 | pIC50 (pY641-STAT6 in PBMC; [4]): 6.00 to 7.00
8 | – | – | CC(C)(CO)C(=O)SCCOP(=O)(Oc1ccccc1)C(F)(F)c1ccc2sc(C(=O)N[C@H]3CCCC[C@H]4CC[C@@H](C(=O)N5C[C@@H](C#N)[C@H](c6cc[nH]c(=O)c6)C5)N4C3=O)cc2c1 (single isomer, unassigned) [Compound 1091] | < 5.52 | pIC50 (pY641-STAT6 in PBMC; STAT6, PBMC, Table 115): < 5.52
9 | – | – | CC(C)CC(=O)SCCOP(=O)(Oc1cccc(C#N)c1)C(F)(F)c1ccc2sc(C(=O)N[C@H]3CCCC[C@H]4CC[C@@H](C(=O)N5C[C@H](c6ccccc6)[C@@H](C#N)C5)N4C3=O)cc2c1 (single isomer, unassigned) [Compound 1007] | – | pIC50 (pY641-STAT6 in PBMC; STAT6, PBMC, Table 115): 6.00 to 7.00; pIC50 (pY705-STAT3 in PBMC; STAT3, PBMC, Table 115): < 5.52
10 | < 5.52 | > 7.00 | CC(C)(C)C(=O)SCCOP(=O)(OCCSC(=O)C(C)(C)C)C(F)(F)c1ccc2sc(C(=O)N[C@H]3CCC4(CC4)C[C@H]4CC[C@@H](C(=O)N5CC(c6cccnc6)C5)N4C3=O)cc2c1 [Compound 132, S,S′-((((difluoro(2-(((3′S,6′S,10a′R)-5′-oxo-3′-(3-(pyridin-3-yl)azetidine-1-carbonyl)octahydro-1′H-spiro [cyclopropane-1,9′-pyrrolo[1,2-a]azocin]-6′-yl)carbamoyl)benzo[b]thiophen-5-yl)methyl)phosphoryl)bis (oxy))bis(ethane-2,1-diyl))bis(2,2-dimethylpropane-thioate)] | – | –
11 | < 5.52 | 6.00 to 7.00 | CC(C)(C)C(=O)OCOP(=O)(OCOC(=O)C(C)(C)C)C(F)(F)c1ccc2sc(C(=O)N[C@@]3(C)CCCC[C@H]4CC[C@@H](C(=O)N5CC(c6ccccn6)C5)N4C3=O)cc2c1 [Compound 150, (((difluoro(2-(((3S,6S,10aS)-6-methyl-5-oxo-3-(3-(pyridin-2-yl)azetidine-1-carbonyl)decahydropyrrolo [1,2-a]azocin-6-yl)carbamoyl)benzo[b]thiophen-5-yl)methyl)phosphoryl)bis (oxy))bis (methylene) bis(2,2-dimethyl-propanoate)] | – | –
12 | 6.00 to 7.00 | < 5.52 | CC(C)OC(=O)OCOP(=O)(Cc1ccc2sc(C(=O)N[C@H]3CCCC[C@H]4CC[C@@H](C(=O)N5C[C@@H](C#N)[C@H](c6ccccc6)C5)N4C3=O)cc2c1)OCOC(=O)OC(C)C (single isomer, unassigned) [Compound 148, ((((2-(((3S,6S,10aS)-3-((3S,4R or 3R,4S)-3-cyano-4-phenylpyrrolidine-1-carbonyl)-5-oxodecahydro-pyrrolo[1,2-a]azocin-6-yl)carbamoyl)benzo[b]thiophen-5-yl)methyl)phosphoryl)bis(oxy))bis(methylene) diisopropyl bis(carbonate)] | – | –

Row | Structure (SMILES) | pIC50 (pY641-STAT6 in PBMC; [1]) | pIC50 (pY705-STAT3 in PBMC; [2]) | pIC50 (pY705-STAT3 in PBMC; [3]) | further results
13 | CC(C)(C)C(=O)OCOP(=O)(OCOC(=O)C(C)(C)C)[C@@H](F)c1ccc2sc(C(=O)N[C@H]3CCCC[C@H]4CC[C@@H](C(=O)N5C[C@@H](C#N)[C@H](c6ccccc6)C5)N4C3=O)cc2c1 (single isomer, unassigned) [Compound 183, ((((R)- or (S)-(2-(((3S,6S,10aS)-3-((3S,4R or 3R,4S)-3-cyano-4-phenylpyrrolidine-1-carbonyl)-5-oxodecahydropyrrolo[1,2-a]azocin-6-yl)carbamoyl)benzo[b]thiophen-5-yl)fluoromethyl)phosphoryl)bis(oxy))bis(methylene)bis(2,2-dimethylpropanoate))] | > 7.00 | 6.00 to 7.00 | – | –
14 | CC(C)(CO)C(=O)SCCOP(=O)(Oc1ccccc1)C(F)(F)c1ccc2sc(C(=O)N[C@H]3CCC[C@H]4CC[C@@H](C(=O)N5CC(c6cccnc6)C5)N4C3=O)cc2c1 (stereo partly drawn) [Compound 201, S-(2-(((difluoro(2-(((3S,6S,9aS)-5-oxo-3-(3-(pyridin-3-yl)azetidine-1-carbonyl)octahydro-1H-pyrrolo[1,2-a]azepin-6-yl)carbamoyl)benzo[b]thiophen-5-yl)methyl) (phenoxy)phosphoryl)oxy)ethyl) 3-hydroxy-2,2-dimethyl-propanethioate] | – | 6.00 to 7.00 | – | pIC50 (pY641-STAT6 in PBMC; pSTAT6, PBMC, Table 1114): < 5.52
